The target of one assay is Avi-tagged FL MALT-1 (Homo sapiens (Human), UniProt Q9UDY8). The assay is described as follows: MALT-1 Fluorogenic Peptide Cleavage Assay (MALT1 inhibition assay). The format is biochemical. The conditions noted are these: Ac-LRSR-AMC peptide substrate, 30 min pre-incubation, 90 min reaction at room temperature. The gist of the method: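 Cleavage of Ac-LRSR-AMC, read as fluorescence at 342/441 nm after 90 min at room temperature, with substrate working stocks of 50 μM (Km) or 280 μM (10×Km). Enzyme, Avi-tagged full-length MALT-1 (40 nM stock), was first pre-incubated 30 min with compound in citrate/HEPES pH 6.89 buffer with TCEP, EDTA, CHAPS and 2% DMSO; IC50 fitted from normalised % inhibition.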

In assay [1] the test system is NF-kB reporter in Jurkat cells. The assay is described as follows: NF-kB reporter assay in Jurkat cells stimulated with aCD3/aCD28/PMA. The format is cell-based. The following applies: Jurkat cells, 1 hr compound pre-incubation, aCD3/aCD28/PMA stimulation 4 hr, One-Glo readout, read-out: NF-kB Reporter Assay IC50. The gist of the method:
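Luminescence (One-Glo) from the NF-kB reporter yielded IC50 values. Stimulation lasted 4 h at 37° C with aCD3, aCD28 and PMA (final 5, 5 and 0.03 […]), after 1 h compound pre-exposure of 25,000 Jurkat cells per well in serum-free RPMI.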
(In general: A reporter such as luciferase makes a cellular process visible.)

In general, IC50 refers to the midpoint of a concentration-inhibition curve.

Like-named read-outs stand apart in the source and are kept apart here. Some results are limits rather than exact numbers.

Avi-tagged FL MALT-1, sequence (Q9UDY8 whole entry): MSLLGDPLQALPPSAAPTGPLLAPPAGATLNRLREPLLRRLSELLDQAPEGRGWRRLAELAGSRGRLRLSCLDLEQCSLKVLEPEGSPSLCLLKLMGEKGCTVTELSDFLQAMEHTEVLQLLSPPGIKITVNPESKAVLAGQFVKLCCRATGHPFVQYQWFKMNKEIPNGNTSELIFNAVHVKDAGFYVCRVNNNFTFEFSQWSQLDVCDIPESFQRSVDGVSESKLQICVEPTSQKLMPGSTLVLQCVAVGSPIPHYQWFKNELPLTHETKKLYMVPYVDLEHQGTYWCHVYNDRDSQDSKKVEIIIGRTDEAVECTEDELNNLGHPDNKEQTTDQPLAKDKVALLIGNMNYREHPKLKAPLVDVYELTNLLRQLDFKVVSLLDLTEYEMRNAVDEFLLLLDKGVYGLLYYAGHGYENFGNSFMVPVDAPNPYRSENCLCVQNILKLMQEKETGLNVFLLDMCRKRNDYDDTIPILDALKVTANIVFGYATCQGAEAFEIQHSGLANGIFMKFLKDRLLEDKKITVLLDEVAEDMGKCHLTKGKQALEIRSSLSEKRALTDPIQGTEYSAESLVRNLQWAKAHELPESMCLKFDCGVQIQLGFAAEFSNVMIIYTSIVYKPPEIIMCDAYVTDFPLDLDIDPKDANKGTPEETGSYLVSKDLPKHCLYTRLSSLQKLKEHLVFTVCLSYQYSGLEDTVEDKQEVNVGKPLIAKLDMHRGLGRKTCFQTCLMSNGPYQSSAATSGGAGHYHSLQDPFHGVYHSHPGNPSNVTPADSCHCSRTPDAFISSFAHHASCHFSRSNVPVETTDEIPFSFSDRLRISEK

On to `CC[C@](C)(OC)c1ccnc(-n2cc(S(=O)(=O)Nc3cccc4cnn(C)c34)cn2)c1` (stereo in doubt) [Compound I-313, 1-(4-(2-methoxybutan-2-yl)pyridin-2-yl)-N-(1-methyl-1H-indazol-7-yl)-1H-pyrazole-4-sulfonamide], for which the values for the IC50 (on Avi-tagged FL MALT-1; in assay [1] (Homo sapiens)) were greater than 2500 nM and less than 400 nM, respectively.
As to `COc1ccc2cnn(C)c2c1N(C)S(=O)(=O)c1cnn(-c2ccnc(C(F)(F)F)c2)c1` [Compound I-25, N-(6-Methoxy-1-Methyl-1H-Indazol-7-yl)-N-methyl-1-(2-(Trifluoromethyl)Pyridin-4-yl)-1H-Pyrazole-4-Sulfonamide], the IC50 against Avi-tagged FL MALT-1 was no more than 400 nM; in assay [1] (Homo sapiens) it was less than 400 nM.
Take `COC1(c2ccnc(-n3cc(S(=O)(=O)Nc4cccc5cnn(C)c45)cn3)c2)CC(F)C1` (stereo not shown) [Compound I-99, 1-(4-(3-fluoro-1-methoxycyclobutyl)pyridin-2-yl)-N-(1-methyl-1H-indazol-7-yl)-1H-pyrazole-4-sulfonamide]: the IC50 against Avi-tagged FL MALT-1 is greater than 2500 nM; in assay [1] (Homo sapiens), less than 400 nM.
On the same counts, the results for `COc1ncc2cnn(C)c2c1NS(=O)(=O)c1cnn(-c2cc(C3(F)COC3)ccn2)c1` [Compound I-124, 1-(4-(3-fluorooxetan-3-yl)pyridin-2-yl)-N-(6-methoxy-1-methyl-1H-pyrazolo[4,3-c]pyridin-7-yl)-1H-pyrazole-4-sulfonamide] are no more than 400 nM and less than 400 nM.
On the same counts, the results for `COc1ccc2cnn(C)c2c1NS(=O)(=O)c1cnn(-c2cc(C(C)(C)OC)ccn2)c1` [Compound I-258, N-(6-methoxy-1-methyl-1H-indazol-7-yl)-1-(4-(2-methoxypropan-2-yl)pyridin-2-yl)-1H-pyrazole-4-sulfonamide] are no more than 400 nM and less than 400 nM.
For `COC[C@@](C)(O)c1ccnc(-n2cc(S(=O)(=O)Nc3cccc4cnn(C)c34)cn2)c1` [Compound I-275] the same measures were greater than 2500 nM and 1000 to 2500 nM.
`Cn1ncc2cccc(NS(=O)(=O)c3cnn(-c4cc(N5CC(F)(F)C5)ccn4)c3)c21` [Compound I-439, 1-[4-(3,3-difluoroazetidin-1-yl)pyridin-2-yl]-N-(1-methylindazol-7-yl) pyrazole-4-sulfonamide]: the results for the IC50 (against Avi-tagged FL MALT-1; in assay [1] (Homo sapiens)) were greater than 2500 nM and less than 400 nM, respectively.
On the same counts, the results for `CN1C(=O)N(c2ccnc(-n3cc(S(=O)(=O)Nc4cccc5cnn(C)c45)cn3)c2)CC1(C)C` [Compound I-332] are greater than 2500 nM and less than 400 nM.
Consider `Cn1ncc2cccc(NS(=O)(=O)c3cnn(-c4cc(C5CCOC5)ccn4)c3)c21` (stereo not shown) [Compound I-118, N-(1-methyl-1H-indazol-7-yl)-1-(4-(tetrahydrofuran-3-yl)pyridin-2-yl)-1H-pyrazole-4-sulfonamide], for which the IC50 against Avi-tagged FL MALT-1 is greater than 2500 nM; in assay [1] (Homo sapiens) it was less than 400 nM.
For `COC[C@](C)(F)c1ccnc(-n2cc(S(=O)(=O)Nc3cccc4cnn(C)c34)cn2)c1` [Compound I-330, (R)-1-(4-(2-fluoro-1-methoxypropan-2-yl)pyridin-2-yl)-N-(1-methyl-1H-indazol-7-yl)-1H-pyrazole-4-sulfonamide] the same measures were greater than 2500 nM and less than 400 nM.
Turning to `COc1ccc2cnn(C)c2c1NS(=O)(=O)c1cnn(-c2ccnc(C3CC3)c2)c1` [Compound I-77, 1-(2-Cyclopropylpyridin-4-yl)-N-(6-Methoxy-1-Methyl-1H-Indazol-7-yl)-1H-Pyrazole-4-Sulfonamide], the IC50 is no more than 400 nM against Avi-tagged FL MALT-1 and less than 400 nM in assay [1] (Homo sapiens).
For the compound `COc1ccc2cnn(C)c2c1NS(=O)(=O)c1cnn(-c2cc(C3(F)CC(F)C3)ccn2)c1` (single isomer, unassigned) [Compound I-378, 1-(4-(1,3-difluorocyclobutyl)pyridin-2-yl)-N-(6-methoxy-1-methyl-1H-indazol-7-yl)-1H-pyrazole-4-sulfonamide], the IC50 is no more than 400 nM on Avi-tagged FL MALT-1 and less than 400 nM in assay [1].
As for `COc1ccc2cnn(C)c2c1NS(=O)(=O)c1cnn(-c2cc(C3(F)CC(C)C3)ccn2)c1` (stereo not shown) [Compound I-413, 1-(4-(1-fluoro-3-methylcyclobutyl)pyridin-2-yl)-N-(6-methoxy-1-methyl-1H-indazol-7-yl)-1H-pyrazole-4-sulfonamide], the IC50 is 400 to 1000 nM at Avi-tagged FL MALT-1 and less than 400 nM in assay [1] (Homo sapiens).
Consider `Cc1n[nH]c2cccc(NS(=O)(=O)c3cnn(-c4cc(C5CC5)ccn4)c3)c12` [Compound I-89, 1-(4-Cyclopropylpyridin-2-yl)-N-(3-Methyl-1H-Indazol-4-yl)-1H-Pyrazole-4-Sulfonamide], for which the IC50 was greater than 2500 nM on Avi-tagged FL MALT-1 and less than 400 nM in assay [1] (Homo sapiens).
`Cn1ncc2cccc(NS(=O)(=O)c3cnn(-c4cc(N5CCCCCC5)ccn4)c3)c21` [Compound I-391, 1-[4-(azepan-1-yl)pyridin-2-yl]-N-(1-methylindazol-7-yl)pyrazole-4-sulfonamide]: the results for the IC50 (against Avi-tagged FL MALT-1; in assay [1] (Homo sapiens)) were greater than 2500 nM and less than 400 nM, respectively.
With `COc1ncc2cnn(C)c2c1NS(=O)(=O)c1cnn(-c2cc(C(F)(F)F)n(C)n2)c1` [Compound I-286, N-(6-methoxy-1-methyl-1H-pyrazolo[4,3-c]pyridin-7-yl)-1′-methyl-5′-(trifluoromethyl)-1′H-[1,3′-bipyrazole]-4-sulfonamide], the IC50 at Avi-tagged FL MALT-1 is no more than 400 nM; in assay [1] (Homo sapiens), 400 to 1000 nM.
Regarding `COc1ccc2cnn(C)c2c1NS(=O)(=O)c1cnn(-c2cnn3c2COCCC3)c1` [Compound I-455, N-(6-methoxy-1-methylindazol-7-yl)-1-{4H,6H,7H,8H-pyrazolo[3,2-c][1,4]oxazepin-3-yl}pyrazole-4-sulfonamide], the values for the IC50 (against Avi-tagged FL MALT-1; in assay [1] (Homo sapiens)) were greater than 2500 nM and 1000 to 2500 nM, respectively.
For the compound `COc1ncc2cnn(C)c2c1NS(=O)(=O)c1cnn(-c2cc(C(C)O)ccn2)c1` (single isomer, unassigned) [Compound I-293, 1-(4-(1-hydroxyethyl)pyridin-2-yl)-N-(6-methoxy-1-methyl-1H-pyrazolo[4,3-c]pyridin-7-yl)-1H-pyrazole-4-sulfonamide], the IC50 against Avi-tagged FL MALT-1 is no more than 400 nM; in assay [1] it was 400 to 1000 nM.
Regarding `Cn1ncc2ccc(OC3CC3)c(NS(=O)(=O)c3cnn(-c4ccnc(C(F)(F)F)c4)c3)c21` [Compound I-55, N-(6-Cyclopropoxy-1-Methyl-1H-Indazol-7-yl)-1-(2-(Trifluoromethyl)Pyridin-4-yl)-1H-Pyrazole-4-Sulfonamide], the figures for the IC50 (on Avi-tagged FL MALT-1; in assay [1] (Homo sapiens)) were no more than 400 nM and 1000 to 2500 nM, respectively.
On the same counts, the results for `Cn1ncc2cccc(NS(=O)(=O)c3cnn(-c4cc(N5CC(C)(C)OC5=O)ccn4)c3)c21` [Compound I-283] are greater than 2500 nM and less than 400 nM.
On to `[2H]c1nn(C([2H])([2H])[2H])c2c(NS(=O)(=O)c3cnn(-c4cc(C(F)(F)F)ccn4)c3)cccc12` [Compound I-353, N-(1-(methyl-d3)-1H-indazol-7-yl-3-d)-1-(4-(trifluoromethyl)pyridin-2-yl)-1H-pyrazole-4-sulfonamide], for which the IC50 on Avi-tagged FL MALT-1 is no more than 400 nM; in assay [1] (Homo sapiens), less than 400 nM.
On the same counts, the results for `CN1CC[C@@H](n2cc(S(=O)(=O)Nc3cccc4cnn(C)c34)cn2)CC1=O` [Compound I-414] are greater than 2500 nM and greater than 2500 nM.
For `CCC(C)(OC)c1ccnc(-n2cc(S(=O)(=O)Nc3c(OC)ccc4cnn(C)c34)cn2)c1` (single isomer, unassigned) [Compound I-360, N-(6-methoxy-1-methyl-1H-indazol-7-yl)-1-(4-(2-methoxybutan-2-yl)pyridin-2-yl)-1H-pyrazole-4-sulfonamide] the same measures were no more than 400 nM and less than 400 nM.
For `COC[C@H](O)c1ccnc(-n2cc(S(=O)(=O)Nc3cccc4cnn(C)c34)cn2)c1` [Compound I-305] the same measures were greater than 2500 nM and 400 to 1000 nM.
As for `CCc1ccc2cnn(C)c2c1NS(=O)(=O)c1cnn(-c2ccc(C(F)(F)F)cn2)c1` [Compound I-1, 3N-(6-Ethyl-1-Methyl-1H-Indazol-7-yl)-1-(5-(Trifluoromethyl)Pyridin-2-yl)-1H-Pyrazole-4-Sulfonamide], the IC50 against Avi-tagged FL MALT-1 was no more than 400 nM; in assay [1] (Homo sapiens), less than 400 nM.
For `CCc1ccc2cnn(C)c2c1NS(=O)(=O)c1cnn(-c2ccc(OC)cn2)c1` [Compound I-42, N-(6-Ethyl-1-Methyl-1H-Indazol-7-yl)-1-(5-Methoxypyridin-2-yl)-1H-Pyrazole-4-Sulfonamide] the same measures were 400 to 1000 nM and 400 to 1000 nM.
For `COc1ccc2cnn(C)c2c1NS(=O)(=O)c1cnn(-c2cc(N3CC(C(N)=O)C3)ccn2)c1` [Compound I-459] the same measures were greater than 2500 nM and greater than 2500 nM.
On the same counts, the results for `CCOc1ccc2cnn(C)c2c1NS(=O)(=O)c1cnn(-c2ccnc(C(F)(F)F)c2)c1` [Compound I-9, N-(6-Ethoxy-1-Methyl-1H-Indazol-7-yl)-1-(2-(Trifluoromethyl)Pyridin-4-yl)-1H-Pyrazole-4-Sulfonamide] are no more than 400 nM and 400 to 1000 nM.
For the compound `CCC(O)c1ccnc(-n2cc(S(=O)(=O)Nc3c(OC)ccc4cnn(C)c34)cn2)c1` (single isomer, unassigned) [Compound I-281, 1-(4-(1-hydroxypropyl)pyridin-2-yl)-N-(6-methoxy-1-methyl-1H-indazol-7-yl)-1H-pyrazole-4-sulfonamide], the IC50 at Avi-tagged FL MALT-1 was 400 to 1000 nM; in assay [1] (Homo sapiens), less than 400 nM.

These data come from patent US20240150321A1, “PYRAZOLYLSULFONAMIDE COMPOUNDS AND THEIR USE IN THERAPY” (HOTSPOT THERAPEUTICS, INC., priority 2022, published 2024).
